Measured values: ChEMBL document CHEMBL1201862, “PubChem BioAssay data set” (2004)
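Following 48 hours of exposure in 96-well plates, responses at five concentrations were used to interpolate endpoints linearly. GI50 marks 50% less growth.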 Activity calls are given as the source filed them. Cut-off read from the data, not from the text of the source: active = GI50 up to about 1.1 µM and inactive = higher.

Tests used:
Test in all cases: DTP human tumour cell line panel, 48 h
MDA-MB-435 = tested on: MDA-MB-435
OVCAR-4 = tested on: OVCAR-4
CAKI-1 = tested on: CAKI-1
MDA-N = tested on: MDA-N
RXF 393 = tested on: RXF 393
M14 = tested on: M14
TK-10 = tested on: TK-10
T47D = tested on: T47D
A498 = tested on: A498
CCRF-CEM = tested on: CCRF-CEM
SNB-75 = tested on: SNB-75
HCC 2998 = tested on: HCC 2998
SNB-19 = tested on: SNB-19
SK-MEL-5 = tested on: SK-MEL-5
SF-295 = tested on: SF-295
HCT-116 = tested on: HCT-116
786-0 = tested on: 786-0
NCI-H460 = tested on: NCI-H460
SK-MEL-2 = tested on: SK-MEL-2
SW-620 = tested on: SW-620
K562 = tested on: K562
COLO 205 = tested on: COLO 205
OVCAR-3 = tested on: OVCAR-3
OVCAR-8 = tested on: OVCAR-8
SR = tested on: SR
SF-268 = tested on: SF-268
EKVX = tested on: EKVX
HCT-15 = tested on: HCT-15
NCI-H522 = tested on: NCI-H522
SK-MEL-28 = tested on: SK-MEL-28
MCF7 = tested on: MCF7
DU-145 = tested on: DU-145
Hs-578T = tested on: Hs-578T
KM12 = tested on: KM12
HL-60 = tested on: HL-60
UACC-62 = tested on: UACC-62
NCI-H226 = tested on: NCI-H226
IGROV-1 = tested on: IGROV-1
MDA-MB-231 = tested on: MDA-MB-231
ACHN = tested on: ACHN
NCI-H23 = tested on: NCI-H23
LOX IMVI = tested on: LOX IMVI
Malme-3M = tested on: Malme-3M
UO-31 = tested on: UO-31
OVCAR-5 = tested on: OVCAR-5
BT-549 = tested on: BT-549
A549 = tested on: A549
PC-3 = tested on: PC-3
HOP-62 = tested on: HOP-62
RPMI-8226 = tested on: RPMI-8226
SN12C = tested on: SN12C
NCI/ADR-RES = tested on: NCI/ADR-RES
UACC-257 = tested on: UACC-257
MOLT-4 = tested on: MOLT-4
U-251 = tested on: U-251
HT-29 = tested on: HT-29
SK-OV-3 = tested on: SK-OV-3
SF-539 = tested on: SF-539
HOP-92 = tested on: HOP-92

Measured: GI50

CCOC(=O)c1cc(-c2ccn(C(C)=O)c2)c(-c2cc(C)co2)[nH]1
> 100 µM: HCT-15
inactive: MDA-MB-435 > 100 µM | OVCAR-4 > 100 µM | CAKI-1 > 100 µM | MDA-N > 100 µM | RXF 393 > 100 µM | M14 > 100 µM | TK-10 > 100 µM | T47D > 100 µM | A498 > 100 µM | CCRF-CEM > 100 µM | SNB-75 > 100 µM | HCC 2998 > 100 µM | SNB-19 > 100 µM | SK-MEL-5 > 100 µM | SF-295 > 100 µM | HCT-116 > 100 µM | 786-0 > 100 µM | NCI-H460 > 100 µM | SK-MEL-2 > 100 µM | SW-620 > 100 µM | K562 > 100 µM | COLO 205 > 100 µM | OVCAR-3 > 100 µM | OVCAR-8 > 100 µM | SR > 100 µM | SF-268 > 100 µM | EKVX > 100 µM | NCI-H522 > 100 µM | SK-MEL-28 > 100 µM | MCF7 > 100 µM | DU-145 > 100 µM | Hs-578T > 100 µM | KM12 > 100 µM | HL-60 > 100 µM | UACC-62 > 100 µM | NCI-H226 > 100 µM | IGROV-1 > 100 µM | MDA-MB-231 > 100 µM | ACHN > 100 µM | NCI-H23 > 100 µM | LOX IMVI > 100 µM | Malme-3M > 100 µM | UO-31 > 100 µM | OVCAR-5 > 100 µM | BT-549 > 100 µM | A549 > 100 µM | PC-3 > 100 µM | HOP-62 > 100 µM | RPMI-8226 > 100 µM | SN12C > 100 µM | NCI/ADR-RES > 100 µM | UACC-257 > 100 µM | MOLT-4 > 100 µM | U-251 > 100 µM

COc1cc(/C=C2\N=C(c3ccccc3)N(c3ccc(C(=O)c4ccccc4)cc3N3C(=O)/C(=C/c4ccc(O)c(OC)c4)N=C3c3ccccc3)C2=O)ccc1O
inactive: HT-29 20.3 µM | SK-OV-3 12.1 µM | MDA-MB-435 2.25 µM | OVCAR-4 14.9 µM | CAKI-1 18.7 µM | MDA-N 3.75 µM | SF-539 5.15 µM | M14 11.3 µM | TK-10 18.5 µM | T47D 5.18 µM | A498 6.92 µM | CCRF-CEM 5.45 µM | SNB-75 18.8 µM | HCC 2998 2.91 µM | SNB-19 19.5 µM | SK-MEL-5 7.76 µM | SF-295 6.43 µM | HCT-116 5.62 µM | 786-0 18.9 µM | NCI-H460 4.66 µM | SK-MEL-2 13.4 µM | SW-620 7.53 µM | K562 5.18 µM | COLO 205 17.9 µM | OVCAR-3 3.52 µM | OVCAR-8 12.7 µM | SR 3.85 µM | SF-268 15.3 µM | EKVX 25.9 µM | SK-MEL-28 21.2 µM | MCF7 5.85 µM | DU-145 17 µM | Hs-578T 10.1 µM | KM12 8.73 µM | HL-60 5.09 µM | UACC-62 9.62 µM | IGROV-1 7.35 µM | HOP-92 22.7 µM | MDA-MB-231 12.9 µM | ACHN 17.5 µM | LOX IMVI 10.5 µM | UO-31 13 µM | OVCAR-5 32.4 µM | BT-549 18.7 µM | A549 11.4 µM | PC-3 11.8 µM | HOP-62 14.5 µM | RPMI-8226 8.51 µM | SN12C 17.9 µM | NCI/ADR-RES 6.76 µM | UACC-257 16.8 µM | MOLT-4 3.3 µM | U-251 9.79 µM
5.28 µM: HCT-15
